Assays:
[1] = target: T1, Gag-Pol polyprotein [600-1027,P835L]/[600-1155,P835L] (Human immunodeficiency virus 1, UniProt P03366, P835L); assay: HIV-1 RT Assay
T1 construct: 600-1027; 600-1155
Source text: (§1) The IC50 of reverse transcriptase is the concentration that inhibits 50% of recombinant HIV-1 RT RNA-directed DNA polymerase activity in vitro.

[2] = target: T2, Gag-Pol polyprotein [600-1027,Y787L]/[600-1155,Y787L] (Human immunodeficiency virus 1, UniProt P03366, Y787L); assay: HIV-1 RT Assay; settings: pH 7.8; 22 °C
T2 construct: 600-1027; 600-1155
Source text: as §1

Structure (SMILES): CCN1c2ncccc2C(=O)N(C)c2ccc(-c3cc[nH]c3)nc21 [2-ethyl-9-methyl-5-(1H-pyrrol-3-yl)-2,4,9,15-tetraazatricyclo[9.4.0.0^{3,8}]pentadeca-1(11),3(8),4,6,12,14-hexaen-10-one]
- IC50 [1]: 130 nM
- IC50 [2]: 100 nM

Structure (SMILES): CCN1c2ncccc2C(=O)N(C)c2ccc(-c3c[nH]c4cnccc34)nc21 [2-ethyl-9-methyl-5-{1H-pyrrolo[2,3-c]pyridin-3-yl}-2,4,9,15-tetraazatricyclo[9.4.0.0^{3,8}]pentadeca-1(11),3(8),4,6,12,14-hexaen-10-one]
- IC50 [1]: < 1 nM
